# Key:
# [1] = tested on: db/db mice; assay: Chronic oral CSAA treatment of db/db diabetic mice; assay type: in vivo, mouse
# Source text: (§1) The 5-week old db/db mice and the C57/B16 mice were purchased from Jackson Laboratory and housed in the vivarium of UMDNJ-RWJMS. […] For food intake experiments, sets of mice were housed individually in metabolic cages (Nalgene) with free access to food and water. Food cups and food scattered in the runway to the cups were weighed daily to determine food intake. For mouse tissue studies, mice were sacrificed by decapitation, and the tissues of interesting were obtained.
# (§2) Blood glucose was determined using OneTouch UltraSmart blood glucose monitoring system (Lifescan), and the insulin levels were measured by ultra sensitive mouse insulin ELISA kit (Crystal Chem Inc.), following the manufacturer's instructions.
# [2] = tested on: NIH-3T3 cells; assay: Mitochondrial membrane potential (TMRE staining) in cultured cells; assay type: cell-based, mouse
# Description: For mitochondrial uncoupling activity analysis with the cultured cells, the NIH-3T3 were culture to 90% confluence. […] The cells were then treated with TMRE (Tetramethylrhodamine ethyl ester perchlorate) to a final concentration of 100 nM, incubate for 15 minutes. The cells were then washed twice with PBS, and the pictures were taken under microscope.
# [3] = tested on: C57/B16 mice fed with high-fat diet; assay: Glucose tolerance assay after chronic oral CSAA; assay type: in vivo, mouse; conditions: high-fat diet containing 1500 ppm CSAA for 9 weeks
# Description: (§3) For glucose tolerance tests, mice were starved overnight and injected I.P. with 20% glucose at a dose of 2 g/kg body weight. Blood was obtained from the tail at time points 0, 15, 30, 60, 90, and 120 min for glucose measurement. For insulin tolerance tests, mice were starved for 5 h and injected I.P. with 0.75 U/kg body weight recombinant human insulin (Eli Lilly). Blood was obtained from the tail at time points 0, 15, 30, 60, 90, and 120 min for glucose measurement.
# [4] = Chronic I.P. CSAA injection, high-fat diet induced body weight gain and food uptake; assay type: in vivo; conditions: daily I.P. 100 μg/mouse
# Source text: as §1
# The other 12 mice were injected daily with vehicle only (PBS). The body weight was measured twice a week and the net body weight gain for each mouse was determined. The average weight gain in each group over the experimental period was plotted. […] The food uptake levels were measured daily with metabolic cages from the day 15 to day 29 and the average daily food uptake of each group was calculated.
# [5] = tested on: db/db mice; assay: Acute I.P. CSAA treatment, blood glucose in diabetic db/db mice; assay type: in vivo; conditions: 100 microgram/mouse I.P.
# Source text: as §1, §2
# [6] = tested on: AMPK; assay: Immunoblotting of phosphorylated AMPK in liver after chronic oral CSAA; assay type: in vivo, mouse; conditions: mice under high-fat diet
# Description: (§4) Immunoblotting assays were carried out according to standard protocol. The sources of the antibodies are: AMPK antibody (Cell Signaling Technology), Thr-172-phosphorylated AMPK antibody (Cell Signaling Technology), Ran antibody (C-20, Santa Cruz).
# [7] = tested on: C57/B16 mice fed with high-fat diet; assay: Insulin tolerance assay after chronic oral CSAA; assay type: in vivo, mouse; conditions: high-fat diet containing 1500 ppm CSAA for 9 weeks
# Description: as §3
# [8] = tested on: NIH-3T3 cells; assay: Cellular oxygen consumption (BD Oxygen Biosensor System); assay type: cell-based, mouse
# Description: (§5) BD™ Oxygen Biosensor System was used to measure the cellular oxygen consumption. NIH-3T3 cells were cultured overnight to log phase, then seeded in oxygen biosensor 96-well plate at the density of 20000 cells per well in DMEM medium. […] Oxygen consumptions (decrease in oxygen concentrations) were indicated by generation of fluorescent signals which were initially quenched by oxygen. Cellular ATP concentrations were measured with the ENLITEN® ATP Assay System and normalized against cell number.
# [9] = tested on: hepatocytes; conditions: high-fat diet containing 1500 ppm CSAA for 10 weeks
# Source text: For mouse liver histological study, the mice sacrificed by decapitation. Liver slices were fixed with buffered formalin (Surgipath Medical Industries, Inc.) and embedded in paraffin. Tissue slides were stained with hematoxylin and eosin (H&E) for detection of lipid droplets in tissue samples. Pictures were taken with a Universal Microscope Axioplan 2 imaging system (Carl Zeiss) with phase contrast objectives.
# [10] = tested on: mitochondria isolated from mouse liver; assay: Mitochondrial uncoupling assay with isolated mitochondria (oxygen consumption, Oxygraph); assay type: biochemical; conditions: oligomycin 5 μg/ml
# Description: For mitochondrial uncoupling assay with isolated mitochondria: Mitochondria were isolated from mouse liver. 1.0 mg of mitochondria in a volume of 0.9 ml of respiration buffer was analyzed for oxygen consumption in the presence of mitochondrial substrate as well as the various inhibitors with an Oxygraph System (Hansatech Instrument, Norfolk, UK). The final concentrations of the various chemicals added into the respiration buffer are as follows: succinate, 5 mM; ADP, 125 μM; oligomycin, 5 μg/ml; KCN, 2 mM)
# [11] = tested on: AMPK; assay: Immunoblotting of phosphorylated AMPK in liver after acute I.P. CSAA; assay type: in vivo; conditions: mouse liver, acute 100 microgram/mouse I.P., 0, 2, 4 hours
# Description: as §4
# [12] = tested on: NIH-3T3 cells; assay: Cellular ATP concentrations (ENLITEN ATP Assay System); assay type: cell-based, mouse; conditions: CSAA 1 μM
# Description: as §5
# [13] = tested on: C57/B16 mice fed with high-fat diet; assay: Chronic oral CSAA treatment of high-fat diet induced pre-diabetic mice; assay type: in vivo, mouse
# Source text: as §1, §2
# [14] = tested on: C57/B16 mice; assay: Glucose uptake assay with 3H 2-deoxyglucose in tissues; assay type: in vivo; conditions: acute 100 microgram/mouse I.P., 3H-2-deoxyglucose 1.5 hours later
# Description: 1.5 hours later, ^3H-2-deoxyglucose (0.5 microcurrie/gram of body weight) was injected through I.P. route. 30 minutes later, mice were treated with anesthetics and perfused with PBS. Mice were then sacrificed and tissue was extracted for measurement of ^3H-2-deoxyglucose accumulation (normalized against tissue mass).
# [15] = tested on: high-fat diet induced pre-diabetic C57/B16 mice; assay: Acute I.P. treatment, blood glucose in high-fat diet induced pre-diabetic mice; assay type: in vivo; conditions: 100 microgram/mouse I.P., starved 5 hours
# Source text: as §1, §2
# [16] = among the first 100,000 persons treated; cited from earlier work
# [17] = tested on: mitochondria; conditions: cited from earlier work
# [18] = NIH-3T3 cells, 2 hours treatment, TMRE
# [19] = stated for both mouse strains (FIG. 1)
# [20] = high-fat diet containing 1500 ppm CSAA for 8 weeks
structure (smiles),measurement,setting,value
"NCCO.O=C(Nc1ccc([N+](=O)[O-])cc1Cl)c1cc(Cl)ccc1O [CSAA, 5-chloro-salicyl-(2-chloro-4-nitro) anilide 2-aminoethanol salt]",food intake rates versus mice fed normal food,[1]; 1500 ppm in food,not significantly different
same,body weight and adiposity versus control mice,[1]; oral CSAA (data not shown),not different from the control mice
same,fasting blood glucose levels versus non-CSAA treated mice at later time,[1]; oral treatment beyond two weeks (data not shown),remained significantly lower
same,fasting blood glucose,"[1]; two week oral treatment, 1500 ppm in AIN-93M food",reduced the fasting blood glucose of the db/db mice to almost normal levels
same,earliest time at which dissipation of mitochondrial membrane potential is seen,"[2]; NIH-3T3 cells, 2 μM CSAA",5 min
same,concentration at which reduction of mitochondrial membrane potential starts,[2]; [18],500 nM
same,concentration for full uncoupling of mitochondria,[2]; [18],around 5 micromolar
same,concentration range at which mitochondria are uncoupled in cultured cells,[2]; cultured cells,high nanomolar to low micromolar range
same,insulin sensitivity by glucose tolerance assay,[3],significantly increased insulin sensitivity
same,food uptake rate versus vehicle group,[4]; day 15 to day 29,higher food uptake rate
same,weight gain induced by high-fat diet,[4]; mice aged 8 months on high-fat diet,reduces the weight gain
same,time after treatment at which blood glucose concentrations were lowered,[5]; [19],~1 h
same,time until which blood glucose lowering remained effective,[5]; [19],about 4 hours
same,reduction in blood glucose as compared to the control,"[5]; db/db mice, starved 5 hours",30%
same,AMPK activity in liver,[6],chronically elevated
same,insulin sensitivity by insulin tolerance assay,[7],significantly increased insulin sensitivity
same,cellular oxygen consumption,[8]; CSAA 1 μM,dramatically stimulated
same,effect of oligomycin co-treatment on CSAA-stimulated oxygen consumption,[8]; CSAA 1 μM and oligomycin 5 μg/ml,did not significantly affect
same,lipid load in hepatocytes,[9],dramatically reduced
same,mitochondrial oxygen consumption in the presence of oligomycin,[10],still effectively promoted mitochondrial oxygen consumption
same,levels of the phosphorylated AMPK,[11],dramatically increased
same,steady-state ATP concentrations in cells,[12],does not affect
same,fasting blood glucose,[13]; [20],completely prevented the increase of fasting blood glucose
same,fasting insulin concentrations versus control group,[13]; [20],significantly lower
same,food uptake,"[13]; high-fat diet containing 1500 ppm CSAA, weeks 7 to 8",no effect
same,body weight and adiposity versus control mice,[13]; high-fat diet with oral CSAA (data not shown),not different from the control mice
same,"glucose uptake rates in liver, muscles, kidney, and lungs",[14],significantly increased
same,effect on blood glucose concentration (hypoglycemic activity),[15],dramatic decrease in blood glucose concentration
"O=[N+]([O-])c1ccc(O)c([N+](=O)[O-])c1 [DNP, 2,4-dinitrophenol]",fatalities due to hyperthermia,[16],two fatalities
same,concentrations at which the mitochondrial uncoupler functions,[17],mini molar concentrations

# — patent US20130231312A1, “TREATMENT OF TYPE II DIABETES AND DIABETES-ASSOCIATED DISEASES WITH SAFE CHEMICAL MITOCHONDRIAL UNCOUPLERS” (priority 2010, published 2013)
